One compound from publication PMC11129186, “New Improved cGMP Analogues to Target Rod Photoreceptor Degeneration” (Journal of Medicinal Chemistry, 2024) can be followed below.

“And” between values parts separate entries of the source, which are not always exact repeats. Identical values can stand only once. Like-named read-outs stand apart in the source and are kept apart here.

For series [1], the system named is primary photoreceptor cells derived from rd1 mutant mice. Briefly: Cell death TUNEL assay in primary photoreceptors. In kind it is cell-based, mouse. To be noted: 50 μM added at day 10 of differentiation, read at day 11. The text has this: To address this possible limitation of the RP model, we tested the CN03 analogues in another RP in vitro cellular model, previously validated for the analysis of cGMP analogues.[10] This model is based on the primary cell culture and differentiation of cells derived from rd1 mutant eyes. The rd1 mouse is one of the best characterized murine models of RP. It carries a mutation in the Phosphodiesterase 6b (Pde6b) gene. Lack of PDE6 function causes high intracellular levels of cGMP in rod photoreceptor cells.[26],[9] […] CN03-Na^+, SP-CN03, and dithio-CN03 were administered to the culture of rd1 mutant cells at a concentration of 50 μM at day 10 of differentiation. The concentration of the compounds and the time of treatment were chosen based on the previously published study in which cGMP inhibitory analogues were tested in this type of primary photoreceptors.[10] Cell death was then analyzed by the TUNEL assay at day 11 of in vitro differentiation.
rd1 mutant mice were purchased from Charles River Italy. The protocol was approved by the Ethical Committee of the University of Modena and Reggio Emilia and by the Italian Ministero della Salute (150/2021-PR). Primary neurospheres were derived from the eyes of rd1 mutant mice, as previously reported.[32] Retinal stem cells in neurospheres were differentiated into photoreceptors, as previously reported.[10]rd1 mutant photoreceptor cells underwent spontaneous cell death after differentiation for 11 days. At day 10, 50 μM of either CN03-Na^+ or SP-CN03 or dithio-CN03 were added to the cells in culture and cell death was assessed 1 day later (day 11 of differentiation) by TUNEL assay (see above for detailed procedure).

The next series concerns 661W-A11 cells. Briefly: Toxicity assay, MTT viability of unstressed cells. In kind it is cell-based, mouse. The following applies: 1 μM to 1 mM, 48 h; dithio-CN03 in DMSO, compared to DMSO vehicle. The text has this: With the aim of developing a new treatment for RP, we evaluated possible toxic effects of the cGMP analogues on a retinal cell line. The target of the treatment for RP is rod photoreceptors, the cells that die due to increased intracellular levels of cGMP during the progression of retinal degeneration. […] Furthermore, this cell line can be stressed with zaprinast, a phosphodiesterase 6 (PDE6) inhibitor, to increase intracellular cGMP and activate cell death pathways, as found in the RP mutant retina. […] A toxicity test was set up by exposing 661W-A11 cells to increasing doses of the four new TEA salts of CN03: CN03, SP-CN03, oxo-CN03, and dithio-CN03 (Figure 2). Viability of the cells was assessed by an MTT assay that measures cell metabolic activity. […]
661W-A11 cells were seeded in 96-well plates at a density of 6000 cells/well, and the following day they were treated with scaling concentrations of either CN03-Na^+, CN03, SP-CN03, oxo-CN03, or dithio-CN03 for 48 h. […] Cell viability was assessed with MTT (3-(4,5-dimethylthiazol-2-yl)-2,5-diphenyl tetrazolium bromide, Sigma). […] The crystals were shaken for 10 min to dissolve and the optical density (OD) was measured at a wavelength of 570 nm.

The nature of series [2]: Aqueous solubility at room temperature (phase solubility, HPLC). The format is physicochemical. As to the method:
Physicochemical properties of dithio-CN03 were characterized and compared to CN03. […] Salt forms of CN03, for example, were prepared varying in aqueous solubility as low as 0.01 mg/mL.[12] To facilitate future development of reactive crystallizations toward other salt forms, a temperature-dependent solubility was also measured between 20 and 75 °C. The resulting solubility curve can be found in the Supporting Information (Figure S38).
The solubility of dithio-CN03 was measured at room temperature and in quadruplicate by phase solubility techniques. Saturated mixtures of the compound were prepared by adding excess starting material to 4 mL vials containing 2 mL of deionized water. They were allowed to equilibrate for 24 h using mild agitation before recording the pH. The clear solution was separated from the solids by filtration with a Cytiva Whatman Mini-Uniprep polypropylene 0.45 μm filter device and diluted to an appropriate analytical concentration where needed. The sample was then analyzed by HPLC, and the solubility was determined by integrating the area of the peak of interest against a standard curve. The solids were also analyzed by XRPD to record the crystal modification obtained.
Solubility data for dithio-CN03
Table S1: Aqueous solubility at room temperature
Sample mg / mL pH of mixture […]
(1 picture or pasted object on this page, not shown here)

The test system of series [3] is 661W-A11 cells stressed with zaprinast. Kind of series: Dose-response curves of cell viability (MTT) under zaprinast stress. In kind it is cell-based, mouse. As to the method: For this analysis, we used the 661W-A11 cells stressed with zaprinast and exposed them to scaling concentrations of either dithio-CN03 or SP-CN03 or CN03-Na^+. The effects were evaluated by the cell viability MTT assay (Figure 5). […] Nevertheless, CN03-Na^+ and SP-CN03 reached up to 70–80% cell viability, while dithio-CN03 could protect rod photoreceptors to almost 100% cell viability at the highest doses (Figure 5). Although dithio-CN03 was considered more hydrophobic, and its entrance in the cells could have been facilitated by this feature, the calculated EC50 was nonetheless similar to more hydrophilic analogues.
661W-A11 cells were seeded in 96-well plates at a density of 6000 cells/well, and the following day they were pretreated with scaling concentrations of either CN03-Na^+ or SP-CN03 or dithio-CN03 for 2 h and then stressed with zaprinast 200 μM in the presence of the compounds for 48 h. Cell viability was assessed by MTT assay (see above for detailed procedure). OD was measured at 570 nm. Data were plotted and EC50 calculated using GraphPad Prism version 7.

The mark [4] stands for this setting: saturated aqueous mixture, room temperature.

For the compound `CCN(CC)CC.O=c1c2nc(Br)n([C@@H]3O[C@@H]4COP(=S)(S)O[C@H]4[C@H]3O)c2nc2[nH]c(-c3ccccc3)cn12` (stereo partly drawn) [dithio-CN03, Triethylammonium 8-Bromo-β-phenyl-1,N^2-ethenoguanosine-3′,5′-cyclicmonophosphorodithioate], the “neuroprotective effect, cell death (TUNEL)” value in series [1] is given as “significantly better neuroprotective activity”. Also, the “toxicity (cell viability, MTT)” value in the series with 661W-A11 cells is recorded as “lowest toxicity”. The “solubility compared to CN03” value in series [2] (aqueous) is “lower solubility”. Moreover, the solubility (in general, how much of the substance goes into solution per volume) at 24 h in series [2] (deionized water, pH 5.6, deionized H2O, room temperature, corresponds to crystal modification II (trihydrate), read-out: aqueous solubility) was found to be 1170 µg/mL; in series [2] (deionized water, pH 5.6, deionized H2O, room temperature, read-out: aqueous solubility), 1800 µM; in series [2] (deionized water, water, thermodynamic from solid, room temperature, deionized water, 24 h equilibration, read-out: aqueous solubility, single samples 1-4 (Table S1)), 1160 µg/mL. In addition, the “aqueous solubility, single samples 1-4 (Table S1)” value in series [2] (room temperature, deionized water, 24 h equilibration) was 1198 µg/mL and 1160 µg/mL and 1169 µg/mL. Further, the “pH of mixture, Average (Table S1)” value in series [2] (setting [4]) amounted to 5.6. Moreover, the “pH of mixture, single samples 1-4 (Table S1)” value in series [2] (setting [4]) is 4.7 and 5.6 and 5.9 and 6.3. The “cell viability reached at the highest doses” value in series [3] (200 μM zaprinast for 48 h, MTT) is about 100%. Besides, in series [3] (Mus musculus, 661W-A11, 48 h, read-out: EC50 of cell viability), the EC50 (in general, the concentration needed to bring the measured effect to its halfway point) turned out to be 20 µM.
